Results from patent US20230134958A1, “NEW MEDICAL TREATMENT” (Umecrine Cognition AB, priority 2021, published 2023).

System: cirrhotic patients defined as Child-Pugh class A and B with manifestation of CHE
Assay: Continuous Reaction Time (CRT) test, clinical Phase II study part D (EudraCT 2016-003651-30), 21 days extended treatment
Assay type: in vivo, human
Experimental: Protocol EudraCT 2016-003651-30 was a randomized, double-blinded, placebo-controlled study consisting of four parts, where part D (partly) of the study is relevant to the herein disclosed and claimed invention. The aim of the study was to assess the potential efficacy (Part D) of the compound golexanolone in patients with cirrhosis. The study was performed at sites in Sweden, Denmark, Ukraine, Russia, Hungary and Poland.
Extended treatment (21 consecutive days) in cirrhotic patients defined as Child-Pugh class A and B with manifestation of CHE, was performed.
An objective of study part D (phase IIa, extended treatment) was to assess preliminary efficacy of treatment with the compound golexanolone on cognitive function, as measured by the Continuous Reaction time (CRT) test.
In order to be eligible for the study, patients required evidence of cognitive impairment defined as a CRT index <1.9 at screening. CRT was re-assessed at baseline, prior to dosing but was not required to be abnormal at baseline.
Exclusion criteria included uncontrolled infection, active gastrointestinal bleeding, a history of bleeding requiring transfusion, transjugular intrahepatic portosystemic shunt placement within the past 90 days, hepatorenal syndrome, uncontrolled ascites, current malignancy, evidence of overt HE at screening or within 7 days of screening, use of psychoactive drugs, or any other psychiatric or medical comorbidity judged by the Investigator to preclude safe participation and/or confound the interpretation of study results.
Alcohol consumption was not allowed within two days prior to screening or for 24 hours prior to all study visits. Moreover, subjects were required to have a negative alcohol breath test at screening and subsequent study visits, including Part D study days 10 and 21 at which cognitive function was measured.
The Investigational Medicinal Product (IMP) is self-administered by the patient at home, except for the study days of visiting the clinic (Days 1, 10 and 21), when the IMP is administered under surveillance. Assistance of a dedicated care-giver or family members/friends is mandatory during the extended treatment period. Intake of study medication, changes in concomitant medications and medical events between visits are registered in a diary on a daily basis by the patient/care-giver and a care-giver diary is completed. Efficacy parameters are evaluated. If assessed as required for practical reasons, a patient can be confined to the research clinic from the evening before dosing on Day 21. A follow-up visit is performed 5-10 days after (last) IMP administration. Change in CRT index from baseline (day 1) to 10 and 21 days respectively after start of treatment, as
compared to placebo, is evaluated.
The Investigational Medical Product (clinical formulation) is supplied as a lipid semi-solid filled in a gelatine capsule for oral administration. For the present study, each capsule contains 10 mg golexanolone. The excipient is a mixture of mono -and diglycerides of capric/caprylic glycerides (Imwitor® 742), which is of pharmacopoeia quality.
The Investigational Medical Product golexanolone is administered every twelve (12) hours (i. e. twice daily) for 21 consecutive days.
10 mg golexanolone BID (i.e. 20 mg per day) in combination with Standard of Care therapy; or 40 mg golexanolone BID (i.e. 80 mg per day) in combination with Standard of Care therapy; or 80 mg golexanolone BID (i.e. 160 mg per day) in combination with Standard of Care therapy; or placebo BID in combination with Standard of Care therapy.
Standard of Care therapy may be any one of an oral antioxidant, fluvoxamine, fluoxetine, ondansetron, colchicine, UDCA (ursodeoxycholic acid), OCA (obeticholic acid), ciclosporin, nalmefene, modafinil, rituximab, lactulose, rifaximin, propranolol, furosemide, methotrexate; or any combination thereof.

C#C[C@]1(O)CC[C@@]2(C)C(CC[C@@H]3[C@@H]2CC[C@]2(C)/C(=N/O)CC[C@@H]32)C1 (stereo partly drawn) [Golexanolone, 3α-ethynyl-3β-hydroxyandrostan-17-one oxime]
Change in CRT compared to baseline (36 patients with abnormal CRT (<1.9) at baseline, 10 mg BID oral with Standard of Care, Day 10, N = 8): 0.3504
Change in CRT compared to baseline (36 patients with abnormal CRT (<1.9) at baseline, 10 mg BID oral with Standard of Care, Day 21, N = 8): 0.4166
Change in CRT compared to baseline (36 patients with abnormal CRT (<1.9) at baseline, 40 mg BID oral with Standard of Care, Day 10, N = 10): 0.3035
Change in CRT compared to baseline (36 patients with abnormal CRT (<1.9) at baseline, 40 mg BID oral with Standard of Care, Day 21, N = 10): 0.4276
Change in CRT compared to baseline (36 patients with abnormal CRT (<1.9) at baseline, 80 mg BID oral with Standard of Care, Day 10, N = 9): 0.5109
Change in CRT compared to baseline (36 patients with abnormal CRT (<1.9) at baseline, 80 mg BID oral with Standard of Care, Day 21, N = 9): 0.5219
Change in CRT compared to baseline (all 45 patients with abnormal (<1.9) or normal CRT at baseline, 10 mg BID oral with Standard of Care, Day 10, N = 10): 0.2762
Change in CRT compared to baseline (all 45 patients with abnormal (<1.9) or normal CRT at baseline, 10 mg BID oral with Standard of Care, Day 21, N = 10): 0.2792
Change in CRT compared to baseline (all 45 patients with abnormal (<1.9) or normal CRT at baseline, 40 mg BID oral with Standard of Care, Day 10, N = 10): 0.3035
Change in CRT compared to baseline (all 45 patients with abnormal (<1.9) or normal CRT at baseline, 40 mg BID oral with Standard of Care, Day 21, N = 10): 0.4276
Change in CRT compared to baseline (all 45 patients with abnormal (<1.9) or normal CRT at baseline, 80 mg BID oral with Standard of Care, Day 10, N = 13): 0.4593
Change in CRT compared to baseline (all 45 patients with abnormal (<1.9) or normal CRT at baseline, 80 mg BID oral with Standard of Care, Day 21, N = 13): 0.3505
